39 compounds from US8592422B2, “Bicyclic triazole and pyrazole lactams as allosteric modulators of mGluR5 receptors” (Vanderbilt University, priority 2010, dated 2013) can be followed below.

This assay concerns the target T1, human mGluR5a receptor (Homo sapiens, UniProt P41594).
T1 construct: cDNA subcloned into pcDNA3.1(-)
Briefly: Cell-based functional Ca2+ mobilization assay (FDSS), potentiation of glutamate EC20 response. The following applies: for pEC50 / EC50: HEK cells transfected with human mGluR5 (H10H or H12H), in presence of EC20 glutamate; for EC50: read-out: EC50; for Emax (%) / Emax: maximum % effect in concentration-response curve, as percent of response to maximally effective glutamate. How it is done:
Human embryonic kidney (HEK) cells transfected with rat mGluR5 were plated in clear bottom assay plates for assay in a Functional Drug Screening System (FDSS). In the alternative assay, HEK cells transfected with human mGluR5 were plated for assay in the FDSS. In some cases the HEK cells transfected with human mGluR5 were the H10H cell line. Alternatively, the HEK cells transfected with human mGluR5 were the H12H cell line. […] The cells were loaded with a Ca^2+-sensitive fluorescent dye (e.g., Fluo-4), and the plates were washed and placed in the FDSS instrument. After establishment of a fluorescence baseline for twelve seconds, the compounds of the present invention were added to the cells, and the response in cells was measured. Alternatively, in various further aspects, after establishment of a fluorescence baseline for about three seconds, the compounds of the present invention were added to the cells, and the response in cells was measured. Five minutes later, an mGluR5 agonist (e.g., glutamate, 3,5-dihydroxyphenylglycine, or quisqualate) was added to the cells, and the response of the cells was measured.
The above described assay operated in two modes. In the first mode, a range of concentrations of the present compounds were added to cells, followed by a single fixed concentration of agonist. If a compound acted as a potentiator, an EC50 value for potentiation and a maximum extent of potentiation by the compound at this concentration of agonist was determined by non-linear curve fitting. In the second mode, several fixed concentrations of the present compounds were added to various wells on a plate, followed by a range of concentrations of agonist for each concentration of present compound; the EC50 values for the agonist at each concentration of compound were determined by non-linear curve fitting. A decrease in the EC50 value of the agonist with increasing concentrations of the present compounds (a leftward shift of the agonist concentration-response curve) is an indication of the degree of mGluR5 potentiation at a given concentration of the present compound. An increase in the EC50 value of the agonist with increasing concentrations of the present compounds (a rightward shift of the agonist concentration-response curve) is an indication of the degree of mGluR5 antagonism at a given concentration of the present compound. The second mode also indicates whether the present compounds also affect the maximum response to mGluR5 to agonists.
The mGluR5 activity was determined using the metabotropic glutamate receptor activity assays in human embryonic kidney cells as described herein, wherein the human embryonic kidney cells were transfected with human mGluR5. The compounds in Table 1 were synthesized with methods identical or analogous to those shown herein. The requisite starting materials were commercially available, described in the literature, or readily synthesized by one skilled in the art of organic synthesis. The compound number given in Table I corresponds to the compound number in Table II and the structure given therein.
Human mGluR5a cDNA in pCMV6-XL6 mammalian expression plasmid was purchased from OriGene Technologies, Inc. (catalogue number SC326357) and subcloned into pcDNA3.1(−). Human embryonic kidney (HEK) 293A cells were then transfected with human mGluR5a pcDNA3.1(−) using LipofectAmine-2000 (Invitrogen) and monoclones were selected and tested for functional response using a Ca^2+ mobilization assay. Monoclones were named for the species (“H” for human) plus the location on the plate (e.g. “10H”).
HEK cells transfected with the human mGluR5a receptor (H10H or H12H cell line) were plated at 15,000 cells/well in clear-bottomed poly-D-lysine-coated assay plates (BD Falcon) in glutamate-glutamine-free growth medium and incubated overnight at 37° C. and 5% CO2.
For orientation: A change in cytosolic calcium serves as a functional read-out for many receptors and channels.

T1 sequence (P41594 21-1180 isoform P41594-2 limits assumed): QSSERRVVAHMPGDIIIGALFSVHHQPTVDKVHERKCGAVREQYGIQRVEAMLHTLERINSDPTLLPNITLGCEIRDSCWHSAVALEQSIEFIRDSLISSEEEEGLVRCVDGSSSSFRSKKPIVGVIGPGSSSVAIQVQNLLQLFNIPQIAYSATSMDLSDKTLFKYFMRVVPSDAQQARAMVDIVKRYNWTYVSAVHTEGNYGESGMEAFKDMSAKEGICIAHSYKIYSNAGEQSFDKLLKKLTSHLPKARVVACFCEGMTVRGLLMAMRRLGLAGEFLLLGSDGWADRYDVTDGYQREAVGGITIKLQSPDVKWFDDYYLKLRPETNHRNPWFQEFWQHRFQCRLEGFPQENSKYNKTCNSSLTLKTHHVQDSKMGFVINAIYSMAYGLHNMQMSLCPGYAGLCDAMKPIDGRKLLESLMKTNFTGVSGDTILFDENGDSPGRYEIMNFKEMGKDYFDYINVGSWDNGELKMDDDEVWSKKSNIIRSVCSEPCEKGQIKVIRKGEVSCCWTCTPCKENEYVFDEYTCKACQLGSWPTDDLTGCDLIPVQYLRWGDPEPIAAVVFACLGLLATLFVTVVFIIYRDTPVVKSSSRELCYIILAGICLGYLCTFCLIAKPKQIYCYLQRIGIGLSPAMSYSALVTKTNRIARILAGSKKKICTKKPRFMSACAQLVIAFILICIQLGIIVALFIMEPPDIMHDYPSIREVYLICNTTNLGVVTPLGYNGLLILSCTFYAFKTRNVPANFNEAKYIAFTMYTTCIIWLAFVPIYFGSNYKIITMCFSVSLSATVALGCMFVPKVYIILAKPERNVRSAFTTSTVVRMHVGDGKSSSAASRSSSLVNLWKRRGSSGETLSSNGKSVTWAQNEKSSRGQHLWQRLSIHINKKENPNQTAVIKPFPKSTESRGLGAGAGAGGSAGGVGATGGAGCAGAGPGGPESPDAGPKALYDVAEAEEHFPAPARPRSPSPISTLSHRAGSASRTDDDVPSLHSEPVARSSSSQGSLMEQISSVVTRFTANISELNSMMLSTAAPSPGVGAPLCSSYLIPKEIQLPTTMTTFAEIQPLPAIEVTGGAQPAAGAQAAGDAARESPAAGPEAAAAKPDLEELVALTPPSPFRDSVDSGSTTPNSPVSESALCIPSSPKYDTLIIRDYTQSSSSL

On to `O=C1c2cc(COc3ccc(F)cc3)nn2CCN1c1ccc(F)cc1` [Example 165], for which the negative-log EC50 (pEC50) (as a rule, the negative decadic logarithm of the EC50, by convention in mol/L) is recorded as 6.98; the EC50 (in general, the concentration at which the effect is half-maximal) stood at 105 nM; the “Emax (%)” value is 71%.

In the case of `Cc1cc(OCc2cc3n(n2)CCN(c2ccc(F)cc2)C3=O)ncn1` [Example 196], the pEC50 is less than 5.00, the EC50 was greater than 10000 nM and the “Emax (%)” value is recorded as 37%.

`Cc1c(COc2ccccc2)nn2c1C(=O)N(CC1CC1)CC2` [Example 261]: the EC50 is greater than 30200 nM and the Emax (usually the greatest response seen or fitted, relative to the assay's reference) came to 23%.

`COc1nc(N2CCn3nc(COc4ccccn4)cc3C2=O)ncc1F` [Example 209]: the EC50 turned out to be 525 nM and the Emax is 62%.

For the compound `O=C1c2cc(COc3ccccc3)nn2CC(CF)N1c1ccc(F)cc1` (centres unmarked) [Example 269], the pEC50 was found to be 6.16, the EC50 was determined as 692 nM and the “Emax (%)” value came to 58%.

`Cc1cccc(OCc2cc3n(n2)CCN(CC2CC2)C3=O)c1` [Example 168]: the pEC50 is on record as 5.18, the EC50 stood at 6610 nM and the “Emax (%)” value amounted to 30%.

Regarding `O=C1c2cc(COc3ccccc3)nn2CC(CF)N1c1ccc(F)cc1` (centres unmarked) [Example 266], the pEC50 worked out at 6.94, the EC50 is 115 nM and the “Emax (%)” value was determined as 65%.

On to `COCc1ccccc1N1CCn2nc(COc3ccccc3)cc2C1=O` [Example 63], for which the pEC50 is listed as 6.37, the EC50 came out at 430 nM and the “Emax (%)” value came out at 68%.

For the compound `COc1nccc(N2CCn3nc(COc4ccccn4)cc3C2=O)n1` [Example 210], the EC50 was 2140 nM and the Emax is 50%.

For the compound `COc1ccccc1N1CCn2nc(COc3ccccn3)cc2C1=O` [Example 214], the pEC50 turned out to be 5.97, the EC50 turned out to be 1100 nM and the “Emax (%)” value is reported as 54%.

For `O=C1c2cc(COc3ccccc3)nn2CCN1c1ccc(F)cn1` [Example 11], the pEC50 stood at 6.81, the EC50 was 155 nM and the “Emax (%)” value was found to be 79%.

Regarding `COc1cncc(N2CCn3nc(COc4ccc(F)cc4)cc3C2=O)n1` [Example 231], the pEC50 came to 6.92, the EC50 was determined as 110 nM and the “Emax (%)” value worked out at 67%.

In the case of `COCC1Cn2nc(COc3ccccc3)cc2C(=O)N1c1ccc(F)cc1` (centres unmarked) [Example 267], the pEC50 amounted to 6.03, the EC50 was 933 nM and the “Emax (%)” value stood at 70%.

As for `O=C1c2cc(COc3ccccn3)nn2CCN1CC1CC1` [Example 162], the EC50 was 2510 nM and the Emax amounted to 47%.

With `COc1cccnc1N1CCn2nc(COc3ccccc3)cc2C1=O` [Example 79], the pEC50 is reported as 5.66, the EC50 stood at 2190 nM and the “Emax (%)” value was determined as 48%.

Regarding `Cc1ccc(F)c(N2CCn3nc(COc4ccccc4)cc3C2=O)n1` [Example 88], the pEC50 came out at 6.75, the EC50 is 178 nM and the “Emax (%)” value came to 72%.

For `O=C1c2cc(COc3ccccc3)nn2CCN1c1ccccn1` [Example 12], the pEC50 turned out to be 6.06, the EC50 came out at 871 nM and the “Emax (%)” value is reported as 69%.

Turning to `CC1CNC(=O)c2cc(COc3ccccc3)nn21` (racemic) [Example 250], the pEC50 is less than 5.00, the EC50 was greater than 10000 nM and the “Emax (%)” value is on record as 52%.

With `Cc1ccc(N2CCn3nc(COc4ccccc4)cc3C2=O)cc1` [Example 49], the pEC50 was found to be 7.09, the EC50 turned out to be 81 nM and the “Emax (%)” value came to 64%.

Take `COc1nc(N2CCn3nc(COc4ccc(F)cc4)cc3C2=O)ncc1C` [Example 230]: the pEC50 is given as 6.78, the EC50 was 170 nM and the “Emax (%)” value came to 72%.

For `Cc1cccc(N2C(=O)c3cc(COc4ccccc4)nn3CC2C)c1` (centres unmarked) [Example 153], the pEC50 was found to be 7.22, the EC50 stood at 60 nM and the “Emax (%)” value was 71%.

In the case of `O=C1c2cc(COc3ccccc3)nn2CCN1c1nc2ccccc2o1` [Example 324], the pEC50 amounted to 7.24, the EC50 worked out at 58 nM and the “Emax (%)” value was found to be 71%.

For the compound `O=C1c2cc(COc3ccccc3)nn2C(F)CN1c1ccc(F)cc1` (single isomer, unassigned) [Example 273], the pEC50 was 6.97, the EC50 was found to be 107 nM and the “Emax (%)” value is 68%.

`O=C1c2cc(COc3cncc(F)c3)nn2CCN1c1ccc(F)cc1` [Example 161]: the EC50 stood at 1320 nM and the maximum response (Emax) worked out at 68%.

For `COc1nc(C)cc(N2CCn3nc(COc4ccccc4)cc3C2=O)n1` [Example 98], the pEC50 came to 6.13, the EC50 worked out at 741 nM and the “Emax (%)” value amounted to 63%.

As for `CC1Cn2nc(COc3ccccn3)cc2C(=O)N1c1ccc(F)cc1` (centres unmarked) [Example 247], the pEC50 is recorded as 6.23, the EC50 was 589 nM and the “Emax (%)” value came to 73%.

`Cn1cc2ccc(N3CCn4nc(COc5ccccc5)cc4C3=O)cc2n1` [Example 366]: the negative logarithm of the EC50 (pEC50) worked out at 6.07, the EC50 was found to be 850 nM and the “Emax (%)” value is listed as 62%.

Turning to `COc1nccnc1N1CCn2nc(COc3ccccc3)cc2C1=O` [Example 103], the pEC50 stood at 7.03, the EC50 was found to be 93 nM and the “Emax (%)” value is on record as 72%.

`COc1ccc(N2CCn3nc(COc4ccccc4)cc3C2=O)nn1` [Example 89]: the pEC50 is listed as less than 5.00, the EC50 was greater than 10000 nM and the “Emax (%)” value is recorded as 75%.

Turning to `Cc1cc(OCc2cc3n(n2)CCN(c2ccc(F)cc2)C3=O)ncc1F` [Example 180], the pEC50 came out at 5.77, the concentration for a half-maximal effect (EC50) was determined as 1700 nM and the “Emax (%)” value worked out at 53%.

As to `Cn1ccn2nc(COc3ccccc3)cc2c1=O` [Example 37], the EC50 stood at 2070 nM and the Emax came out at 74%.

As to `COc1ncc(C)c(N2CCn3nc(COc4ccccc4)cc3C2=O)n1` [Example 106], the EC50 came to 389 nM and the Emax turned out to be 53%.

Take `O=C1c2cc(COc3ccccn3)nn2CCN1c1ccc(F)cc1` [Example 159]: the pEC50 stood at 6.32, the EC50 stood at 479 nM and the “Emax (%)” value was 69%.

With `CC1CN(CC2CC2)C(=O)c2cc(COc3ccccc3)nn21` (single isomer, unassigned) [Example 129], the pEC50 is less than 4.52, the EC50 was greater than 30200 nM and the “Emax (%)” value was 21%.

As for `O=C1c2cc(COc3ccncn3)nn2CCN1c1ccc(F)cc1` [Example 199], the pEC50 is recorded as 5.43, the EC50 turned out to be 3720 nM and the “Emax (%)” value is 60%.

Consider `O=C1c2cc(COc3ccccc3)nn2CCN1c1ccncc1F` [Example 29], for which the pEC50 is recorded as 6.24, the EC50 came out at 575 nM and the “Emax (%)” value was 80%.

In the case of `Cc1[nH]ncc1N1CCn2nc(COc3ccccc3)cc2C1=O` [Example 322], the pEC50 is less than 5.00, the EC50 was greater than 10000 nM and the “Emax (%)” value was determined as 44%.

Consider `Nc1cccc(N2CCn3nc(COc4ccccc4)cc3C2=O)n1` [Example 285], for which the pEC50 worked out at 6.13, the EC50 amounted to 741 nM and the “Emax (%)” value was found to be 68%.

On to `CNc1ccnc(N2CCn3nc(COc4ccccc4)cc3C2=O)n1` [Example 277], for which the pEC50 is given as 6.03, the EC50 came to 933 nM and the “Emax (%)” value turned out to be 63%.
